What all share (settings): 72 hours
One assay relates to leukemia cells (MOLT-4). Kind of assay: MTT cytotoxicity assay, leukemia cells (MOLT-4). Type of assay: cell-based, human. As to the method: (§1) After 72 hours, the assay was terminated and percent cyotoxicities calculated.
(In general: Formazan colour is commonly taken as a measure of viable cells.)

The next assay has as its system lymphoma cells (U937). Kind of assay: MTT cytotoxicity assay, lymphoma cells (U937). The assay is classed as cell-based, human. The procedure:
as §1

The test system of another assay is human prostate (DU145). Kind of assay: MTT cytotoxicity assay, human prostate (DU145). The assay is classed as cell-based. The procedure:
as §1

For the next assay, the system named is human colon (HT29). The assay is described as follows: MTT cytotoxicity assay, human colon (HT29). Type of assay: cell-based. The procedure:
as §1

The next assay concerns human larynx (HeP.2). Kind of assay: MTT cytotoxicity assay, human larynx (HeP.2). Type of assay: cell-based. The procedure:
as §1

In the next assay the test system is human lung (L132). The assay is described as follows: MTT cytotoxicity assay, human lung (L132). The assay is classed as cell-based. As to the method:
as §1

The subject of assay [1] is ovarian cancer cells (PA-1). Kind of assay: MTT cytotoxicity assay, ovarian cancer cells (PA-1). The assay is classed as cell-based, human. As to the method:
as §1

In brackets after ≈: the same amount, converted by molar mass.

In the case of `C=C(C)C1CCC2(C(=O)O)CCC3(C)C(CCC4C5(C)CCC(OC(=O)c6ccc(CCCCC)cc6)C(C)(C)C5CCC43C)C12` (stereo not drawn) [Derivative 1104], the “ED50 Leukemia MOLT-4” value in the assay on leukemia cells (MOLT-4) came to 1.5 µg/mL (≈ 2.38 µM). Also, the “ED50 Lymphoma U937” value in the assay on lymphoma cells (U937) came to 1.1 µg/mL (≈ 1.74 µM). In the assay with human prostate (DU145), the “ED50 Prostate DU 145” value is 2.0 µg/mL (≈ 3.17 µM). Further, the “ED50 Colon HT-29” value with human colon (HT29) amounted to 3.5 µg/mL (≈ 5.55 µM). Moreover, the “ED50 Larynx Hep. 2” value with human larynx (HeP.2) is 1.7 µg/mL (≈ 2.69 µM). In addition, in the assay with human lung (L132), the “ED50 Lung L 132” value turned out to be 5.9 µg/mL (≈ 9.35 µM). The “ED50 Ovary PA-I” value in assay [1] is 0.8 µg/mL (≈ 1.27 µM).
`CC(C)C1CCC2(C(=O)O)CCC3(C)C(CCC4C5(C)CCC(N=Cc6ccc(F)c(F)c6)C(C)(C)C5CCC43C)C12` (stereo not drawn) [Derivative 998]: the “ED50 Leukemia MOLT-4” value in the assay with leukemia cells (MOLT-4) stood at 1.9 µg/mL (≈ 3.27 µM). In addition, in the assay with lymphoma cells (U937), the “ED50 Lymphoma U937” value amounted to 1.6 µg/mL (≈ 2.75 µM). In addition, the “ED50 Prostate DU 145” value with human prostate (DU145) was 2.2 µg/mL (≈ 3.78 µM). In addition, the “ED50 Colon HT-29” value with human colon (HT29) is 4.0 µg/mL (≈ 6.87 µM). Moreover, the “ED50 Larynx Hep. 2” value in the assay with human larynx (HeP.2) came to 3.0 µg/mL (≈ 5.16 µM). The “ED50 Lung L 132” value in the assay on human lung (L132) was 2.5 µg/mL (≈ 4.3 µM). For the same compound, in assay [1], the “ED50 Ovary PA-I” value came out at 1.2 µg/mL (≈ 2.06 µM).
Consider `CC(C)C1CCC2(C(=O)OC(=O)C34CCC(C(C)C)C3C3CCC5C6(C)CC(Br)C(=O)C(C)(C)C6CCC5(C)C3(C)CC4)CCC3(C)C(CCC4C5(C)CC(Br)C(=O)C(C)(C)C5CCC43C)C12` (stereo not drawn) [Derivative 1163], for which the “ED50 Leukemia MOLT-4” value in the assay with leukemia cells (MOLT-4) was 1.6 µg/mL (≈ 1.52 µM). Besides, the “ED50 Lymphoma U937” value in the assay on lymphoma cells (U937) was found to be 3.8 µg/mL (≈ 3.61 µM). For the same compound, the “ED50 Prostate DU 145” value with human prostate (DU145) was 6.0 µg/mL (≈ 5.7 µM). Besides, the “ED50 Colon HT-29” value in the assay on human colon (HT29) amounted to 7.3 µg/mL (≈ 6.93 µM). Also, in the assay with human larynx (HeP.2), the “ED50 Larynx Hep. 2” value turned out to be 5.0 µg/mL (≈ 4.75 µM). Also, in the assay with human lung (L132), the “ED50 Lung L 132” value came to 6.5 µg/mL (≈ 6.17 µM). The “ED50 Ovary PA-I” value in assay [1] was >4.0 µg/mL.
With `CC(C)C1CCC2(C(=O)O)CCC3(C)C(CCC4C5(C)CCC(=NNc6ccc(F)cc6)C(C)(C)C5CCC43C)C12` (stereo not drawn) [Derivative 829], in the assay on leukemia cells (MOLT-4), the “ED50 Leukemia MOLT-4” value worked out at 0.4 µg/mL (≈ 0.708 µM). In addition, the “ED50 Lymphoma U937” value in the assay with lymphoma cells (U937) turned out to be 0.5 µg/mL (≈ 0.885 µM). The “ED50 Prostate DU 145” value with human prostate (DU145) is >10 µg/mL. Also, the “ED50 Colon HT-29” value in the assay on human colon (HT29) came to 1.3 µg/mL (≈ 2.3 µM). Moreover, in the assay on human larynx (HeP.2), the “ED50 Larynx Hep. 2” value was >10 µg/mL. Also, the “ED50 Lung L 132” value in the assay with human lung (L132) is >4 µg/mL. Further, the “ED50 Ovary PA-I” value in assay [1] amounted to 0.5 µg/mL (≈ 0.885 µM).
With `C=C(C)C1CCC2(C(=O)O)CCC3(C)C(CCC4C5(C)CCC(OC(=O)C67CCC(C(C)C)C6C6CCC8C9(C)CC(Br)C(=O)C(C)(C)C9CCC8(C)C6(C)CC7)C(C)(C)C5CCC43C)C12` (stereo not drawn) [Derivative 1155], in the assay with leukemia cells (MOLT-4), the “ED50 Leukemia MOLT-4” value came to 1.1 µg/mL (≈ 1.13 µM). Also, in the assay with lymphoma cells (U937), the “ED50 Lymphoma U937” value is >10 µg/mL. Besides, the “ED50 Prostate DU 145” value in the assay on human prostate (DU145) was >10 µg/mL. Besides, the “ED50 Colon HT-29” value in the assay on human colon (HT29) was >10 µg/mL. The “ED50 Larynx Hep. 2” value in the assay with human larynx (HeP.2) was >10 µg/mL. In addition, the “ED50 Lung L 132” value in the assay on human lung (L132) was >10 µg/mL. Moreover, the “ED50 Ovary PA-I” value in assay [1] was >4.0 µg/mL.
Consider `CC(C)C1CCC2(C(=O)O)CCC3(C)C(CCC4C5(C)CCC(N=Cc6ccc(F)cc6F)C(C)(C)C5CCC43C)C12` (stereo not drawn) [Derivative 1065], for which the “ED50 Leukemia MOLT-4” value with leukemia cells (MOLT-4) amounted to 1.0 µg/mL (≈ 1.72 µM). In the assay with lymphoma cells (U937), the “ED50 Lymphoma U937” value stood at 1.9 µg/mL (≈ 3.27 µM). In addition, the “ED50 Prostate DU 145” value in the assay with human prostate (DU145) worked out at 2.5 µg/mL (≈ 4.3 µM). For the same compound, the “ED50 Colon HT-29” value with human colon (HT29) was found to be 4.9 µg/mL (≈ 8.42 µM). Also, the “ED50 Larynx Hep. 2” value in the assay on human larynx (HeP.2) was determined as 2.6 µg/mL (≈ 4.47 µM). Further, in the assay with human lung (L132), the “ED50 Lung L 132” value stood at 3.4 µg/mL (≈ 5.84 µM). Also, in assay [1], the “ED50 Ovary PA-I” value came out at 1.4 µg/mL (≈ 2.41 µM).

The record behind these values is US6670345B1 (Dabur Research Foundation, priority 1997, dated 2003).
